From US11168095B2, “ASK1 inhibiting agents” (BIOGEN MA INC., priority 2017, dated 2021)
pIC50: −log10 of the molar value. Read-outs that look alike come from different tables or passages of the source.

Columns and labels:
[1] = molecular target: GST-hASK1 (Homo sapiens (Human), UniProt Q99683); assay: ASK1 TR-FRET assay; format: biochemical; details: 5 nM GST-hASK1, 100 μM ATP, 2 μM STK Substrate 3
Description: The protein kinase activity of 5 nM GST-hASK1(Life Technologies PV4011) was assayed with 100 μM ATP and 2 μM of HTRF biotinylated STK Substrate 3 (CisBio Kit 62ST3PEJ), at ambient temperature in 25 mM Hepes, pH 7.5, 50 mM NaCl, 10 mM MgCl2, 0.02% Brij-35, 1 mM DTT, and 1% DMSO.
After a 10 minute pre-incubation, ASK1 protein kinase activity was initiated by addition of 10 μL of 300 μM ATP.

[2] = molecular target: ASK1 T838 auto phosphorylation in HEK-293T cells (Homo sapiens (Human), UniProt Q99683); assay: ASK1 (AUTO PHOS T838) assay, MSD format; format: cell-based
ASK1 T838 auto phosphorylation in HEK-293T cells, sequence (Q99683 whole entry): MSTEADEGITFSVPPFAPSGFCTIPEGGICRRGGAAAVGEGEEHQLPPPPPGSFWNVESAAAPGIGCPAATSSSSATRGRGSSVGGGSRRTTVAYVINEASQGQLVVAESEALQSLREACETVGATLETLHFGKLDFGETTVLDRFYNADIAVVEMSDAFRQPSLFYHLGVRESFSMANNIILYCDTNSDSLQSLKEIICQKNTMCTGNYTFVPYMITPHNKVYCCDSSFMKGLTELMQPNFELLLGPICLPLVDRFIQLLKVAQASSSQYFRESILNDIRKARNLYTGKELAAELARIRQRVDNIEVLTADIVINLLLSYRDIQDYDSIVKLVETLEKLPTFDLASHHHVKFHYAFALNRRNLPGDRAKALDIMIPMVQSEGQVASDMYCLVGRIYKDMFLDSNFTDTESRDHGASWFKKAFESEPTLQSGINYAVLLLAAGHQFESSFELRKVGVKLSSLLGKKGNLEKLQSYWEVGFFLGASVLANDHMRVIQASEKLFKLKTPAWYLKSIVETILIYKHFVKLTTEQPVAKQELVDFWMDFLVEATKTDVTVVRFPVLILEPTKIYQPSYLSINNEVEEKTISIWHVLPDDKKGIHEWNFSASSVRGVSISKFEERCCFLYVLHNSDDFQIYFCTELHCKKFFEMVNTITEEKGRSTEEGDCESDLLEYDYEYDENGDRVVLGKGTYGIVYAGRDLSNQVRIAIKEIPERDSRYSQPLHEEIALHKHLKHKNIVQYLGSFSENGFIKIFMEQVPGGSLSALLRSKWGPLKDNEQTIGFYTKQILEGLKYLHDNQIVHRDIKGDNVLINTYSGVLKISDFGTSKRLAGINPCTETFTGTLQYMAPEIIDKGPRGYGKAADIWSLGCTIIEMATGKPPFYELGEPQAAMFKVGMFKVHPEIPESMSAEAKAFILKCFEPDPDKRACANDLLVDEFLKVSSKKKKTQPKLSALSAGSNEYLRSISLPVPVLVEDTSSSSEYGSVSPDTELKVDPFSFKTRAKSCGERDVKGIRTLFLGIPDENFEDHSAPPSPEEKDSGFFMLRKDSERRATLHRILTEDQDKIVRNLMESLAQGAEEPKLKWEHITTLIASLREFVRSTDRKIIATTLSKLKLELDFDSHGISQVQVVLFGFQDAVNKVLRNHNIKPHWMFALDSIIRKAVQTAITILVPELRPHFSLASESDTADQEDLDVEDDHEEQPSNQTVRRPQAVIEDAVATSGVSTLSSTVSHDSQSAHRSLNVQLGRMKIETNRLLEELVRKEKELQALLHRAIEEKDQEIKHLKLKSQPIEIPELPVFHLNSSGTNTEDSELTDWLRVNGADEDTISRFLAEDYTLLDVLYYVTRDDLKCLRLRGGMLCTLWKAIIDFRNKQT

[3] = HEK 293T cells transfected with ASK1-V5 full length plasmid, compounds 1 hr at 37° C., read-out: IC50

GST-hASK1, sequence (Q99683 649-946): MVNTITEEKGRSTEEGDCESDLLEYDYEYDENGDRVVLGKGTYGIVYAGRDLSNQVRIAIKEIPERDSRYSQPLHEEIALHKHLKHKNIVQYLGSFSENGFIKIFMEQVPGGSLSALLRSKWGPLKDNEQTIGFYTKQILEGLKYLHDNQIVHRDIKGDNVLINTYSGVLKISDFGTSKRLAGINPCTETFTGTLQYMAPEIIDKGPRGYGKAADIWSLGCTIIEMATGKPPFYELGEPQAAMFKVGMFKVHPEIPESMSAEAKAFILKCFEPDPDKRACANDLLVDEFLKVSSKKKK

| Structure (SMILES) | pIC50 [1] | pIC50 [2, 3] | pIC50 ([1]; class given in words) | pIC50 [2] |
| --- | --- | --- | --- | --- |
| O=C1Nc2cccc(n2)-c2nncn2CCCCOc2ccc(C3=CCOCC3)cc21 [Example 16, 5^5-(3,6-Dihydro-2H-pyran-4-yl)-1^4H-6-oxa-3-aza-2(2,6)-pyridina-1(3,4)-triazola-5(1,2)-benzenacyclodecaphan-4-one] | > 7.00 | > 6.00 | – | – |
| O=C1Nc2cccc(n2)-c2nncn2C/C=C\COc2c1cccc2C(F)(F)F [Example 167, (Z)-5^3-(Trifluoromethyl)-1^4H-6-oxa-3-aza-2(2,6)-pyridina-1(3,4)-triazola-5(1,2)-benzenacyclodecaphan-8-en-4-one] | – | < 5.00 | ≤ 5.00 | – |
| C=Cc1ccc2c(c1)C(=O)Nc1cccc(n1)-c1nncn1CCCCO2 [Example 19, 5^5-Vinyl-1^4H-6-oxa-3-aza-2(2,6)-pyridina-1(3,4)-triazola-5(1,2)-benzenacyclodecaphan-4-one] | > 7.00 | > 6.00 | – | – |
| O=C1Nc2cccc(n2)-c2nncn2C/C=C/COc2c1cccc2C(F)(F)F [Example 166, (E)-5^3-(Trifluoromethyl)-1^4H-6-oxa-3-aza-2(2,6)-pyridina-1(3,4)-triazola-5(1,2)-benzenacyclodecaphan-8-en-4-one] | 5.00 to 6.00 | < 5.00 | – | – |
| O=C1Nc2cccc(n2)-c2nncn2C/C=C\COc2ccc(F)cc21 [Example 159, (Z)-5^5-Fluoro-1^4H-6-oxa-3-aza-2(2,6)-pyridina-1(3,4)-triazola-5(1,2)-benzenacyclodecaphan-8-en-4-one] | > 7.00 | > 6.00 | – | – |
| O=C1Nc2cccc(n2)-c2nncn2CCCCOc2ccc(C3=CCOC3)cc21 [Example 14, 5^5-(2,5-Dihydrofuran-3-yl)-1^4H-6-oxa-3-aza-2(2,6)-pyridina-1(3,4)-triazola-5(1,2)-benzenacyclodecaphan-4-one] | > 7.00 | > 6.00 | – | – |
| O=C1Nc2cccc(n2)-c2nncn2C/C=C/COc2ccc(Br)cc21 [Example 162, (E)-5^5-Bromo-1^4H-6-oxa-3-aza-2(2,6)-pyridina-1(3,4)-triazola-5(1,2)-benzenacyclodecaphan-8-en-4-one] | > 7.00 | 5.00 to 6.00 | – | – |
| O=C1Nc2cccc(n2)-c2nncn2C/C=C\COc2cc(C(F)(F)F)ccc21 [Example 155, (Z)-5^4-(Trifluoromethyl)-1^4H-6-oxa-3-aza-2(2,6)-pyridina-1(3,4)-triazola-5(1,2)-benzenacyclodecaphan-8-en-4-one] | 6.00 to 7.00 | 5.00 to 6.00 | – | – |
| O=C1Nc2cccc(n2)-c2nncn2C/C=C\COc2c(Br)cccc21 [Example 164, (Z)-5^3-Bromo-1^4H-6-oxa-3-aza-2(2,6)-pyridina-1(3,4)-triazola-5(1,2)-benzenacyclodecaphan-8-en-4-one] | – | < 5.00 | ≤ 5.00 | – |
| O=C1Nc2cccc(n2)-c2nncn2CCCCOc2cc(C(F)(F)F)ccc21 [Example 153, 5^4-(Trifluoromethyl)-1^4H-6-oxa-3-aza-2(2,6)-pyridina-1(3,4)-triazola-5(1,2)-benzenacyclodecaphan-4-one] | > 7.00 | > 6.00 | – | – |
| O=C1Nc2cccc(n2)-c2nncn2C/C=C/COc2cc(C(F)(F)F)ccc21 [Example 154, (E)-5^4-(Trifluoromethyl)-1^4H-6-oxa-3-aza-2(2,6)-pyridina-1(3,4)-triazola-5(1,2)-benzenacyclodecaphan-8-en-4-one] | 6.00 to 7.00 | 5.00 to 6.00 | – | – |
| O=C1Nc2cccc(n2)-c2nncn2C/C=C/COc2c(Br)cccc21 [Example 163, (E)-5^3-Bromo-1^4H-6-oxa-3-aza-2(2,6)-pyridina-1(3,4)-triazola-5(1,2)-benzenacyclodecaphan-8-en-4-one] | 6.00 to 7.00 | < 5.00 | – | – |
| O=C1Nc2cccc(n2)-c2nncn2C/C=C\COc2ccc(Br)cc21 [Example 161, (Z)-5^5-Bromo-1^4H-6-oxa-3-aza-2(2,6)-pyridina-1(3,4)-triazola-5(1,2)-benzenacyclodecaphan-8-en-4-one] | > 7.00 | – | – | 5.00 to 6.00 |
